In patent US9359371B2, “Bicyclic substituted pyrimidine compounds” (Xuanzhu Pharma Co., Ltd., priority 2012, dated 2016):
Where two headings read alike, the source gives them in different places. One block for each compound: values may come before it.

Legend:
[1] = Pharmacokinetics (PK) in SD rats; type: in vivo; details: rat; for half-life / bioavailability / AUC(0-inf) / Cmax / Tmax: SD, plasma; for bioavailability: read-out: F % (absolute bioavailability)
Method: Experiment 9: Assay of Pharmacokinetics (PK) of the Compounds of the Present Invention in SD Rats
Compound 1-54 of the present invention were prepared by the methods described in Example 1 to Example 54 of the present invention.
The control drug Avanafil, of which the structure was stated above, was purchased commercially.
Collection of the rat's blood: The animal was fixed. The tail was warmed with a water bath 10 min before the collection time. About 200 μL of whole blood was collected from the tail vein. The collected blood was collected into anticoagulant tubes containing heparin sodium. The blood samples were centrifuged at 4° C. by 8000 rpm for 6 min to give the plasma samples, which should be prepared within 30 min after the collection of blood. The plasma samples were stored in a freezer of −80° C. until test.
The result output by Analyst 1.5.1 of AB Company was used as the concentration of the tested sample (plasma sample). The mean value, standard deviation, variable coefficient and the like were calculated by Microsoft Excel (except for the result directly output by Analyst 1.5.1). Parameters of PK were calculated by Pharsight Phoenix 6.2 software. Formula for calculating oral bioavailability: F %=AUCinf−po*Doseiv/AUCinf−iv*Dosepo.

PDE-5A enzyme = PDE-5A enzyme (Homo sapiens (Human), UniProt O76074); experiment: Caliper Mobility-Shift PDE-5A Assay; type: biochemical; details: Table 1; Avanafil value is the control
Method: Experiment 1: Measurement of Enzymatic Activity In Vitro
PDE-5A enzyme: humanized PDE-5 enzyme, SignalChem, Cat#93-31G-20.
Method: enzyme assay, Caliper Mobility-Shift PDE-5A Assay:
The test compound was accurately weighed, dissolved in DMSO, mixed thoroughly and formulated into 10 mM.
(§1) The maximum final concentration of the compound was 10 μM. The plate was incubated at 30° C. for 1 h, and 20 μL of 70 μM EDTA was then added to stop the reaction. 26 μL of solution of each well was transferred to a 384-well plate. The conversion was read on a EZ reader II. The inhibition rate was calculated by the formula below, and used to calculate IC50 by Prism 5.0 Inhibition rate=[Conversion (ZPE)−Conversion (sample)]×100/[Conversion (ZPE)−Conversion (HPE)]
Note: HPE: control without enzyme; ZPE: control without a test compound

PDE-11 = PDE-11 (Homo sapiens (Human), UniProt Q9HCR9); experiment: Caliper Mobility-Shift PDE-11 Assay; type: biochemical; details: Table 4; maximum final concentration 10 μM
Sequence of PDE-11 (Q9HCR9 whole entry): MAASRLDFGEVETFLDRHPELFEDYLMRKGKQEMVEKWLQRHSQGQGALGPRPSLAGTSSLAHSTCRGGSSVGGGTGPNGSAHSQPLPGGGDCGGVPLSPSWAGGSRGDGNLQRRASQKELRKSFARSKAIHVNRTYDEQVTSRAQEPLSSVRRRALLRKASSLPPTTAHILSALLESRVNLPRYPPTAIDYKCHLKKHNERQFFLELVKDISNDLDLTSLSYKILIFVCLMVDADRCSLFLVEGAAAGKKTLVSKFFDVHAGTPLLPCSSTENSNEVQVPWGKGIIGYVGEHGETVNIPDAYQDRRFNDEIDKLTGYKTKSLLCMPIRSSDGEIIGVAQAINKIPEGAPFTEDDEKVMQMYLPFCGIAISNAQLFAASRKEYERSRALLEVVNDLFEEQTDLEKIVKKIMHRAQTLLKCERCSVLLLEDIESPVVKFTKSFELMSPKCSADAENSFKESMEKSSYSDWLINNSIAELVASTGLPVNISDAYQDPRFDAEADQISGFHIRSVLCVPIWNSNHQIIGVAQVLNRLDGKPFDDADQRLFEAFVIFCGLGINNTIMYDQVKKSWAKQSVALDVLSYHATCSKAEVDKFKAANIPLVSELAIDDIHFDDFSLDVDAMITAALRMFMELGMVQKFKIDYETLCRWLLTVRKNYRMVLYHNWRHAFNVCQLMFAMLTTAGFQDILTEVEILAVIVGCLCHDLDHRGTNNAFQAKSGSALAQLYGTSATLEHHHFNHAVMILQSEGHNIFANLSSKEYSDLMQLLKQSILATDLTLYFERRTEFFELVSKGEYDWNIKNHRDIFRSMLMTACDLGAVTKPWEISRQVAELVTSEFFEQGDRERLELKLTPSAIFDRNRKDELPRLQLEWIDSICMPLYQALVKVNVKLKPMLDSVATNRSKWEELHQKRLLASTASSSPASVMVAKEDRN
Method: Experiment 4: Measurement of Pharmacological Activity on PDE-11 Enzyme In Vitro
Method: enzyme assay, Caliper Mobility-Shift PDE-11 Assay
The test compound was accurately weighed, dissolved in DMSO, mixed thoroughly and formulated into 10 mM. The above stock solution was diluted to a concentration of 0.5 mM with DMSO, and then was gradiently diluted by a dilution factor of 3.162, resulting in 11 concentrations in total.
as §1, with “To a 96-well plate, 20 μL of 10 μM FL-cGMP as the substrate was added; then 1 μL solution of the compound in DMSO or DMSO solution without compound was added; and then 29 μL of 0.28 ng/μL PDE-11 enzyme buffer (100 mM Hepes pH 7.5, 5 mM MgCl2, 0.002% Brij-35) was added. The maximum” for “The maximum”, “II. The Inhibition rate was” for “II. The inhibition rate was”
Note: HPE: control without enzyme; ZPE: control without compound

[2] = po, intragastric administration, 2 mg/kg
[3] = po, intragastric administration, 1 mg/kg

SMILES: COc1ccc(CNc2nc(N3CCC4(CC4)C3)ncc2C(=O)N[C@H]2CC[C@H](O)CC2)cc1Cl (stereo in doubt) [Compound 43, 4-((3-chloro-4-methoxybenzyl)amino)-N-(trans-4-hydroxycyclohexyl)-2-(5-azaspiro[2.4]heptan-5-yl)pyrimidine-5-formamide]
half-life [1, 2]: 3.31 h
bioavailability [1, 2]: 18%
half-life ([1]; intravenous injection, 1 mg/kg): 1.3 h
Cl_obs ([1]; intravenous injection, 1 mg/kg): 53.8 mL/min/kg
Vss_obs ([1]; intravenous injection, 1 mg/kg): 5.18 L/kg
IC50 (PDE-5A enzyme): 15.4 nM

SMILES: COc1ccc(CNc2nc(N3CC4CC4C3)ncc2C(=O)NCC2CCNCC2)cc1Cl (stereo not drawn) [Compound 7, 2-(3-azabicyclo[3.1.0]hexan-3-yl)-4-((3-chloro-4-methoxybenzyl)amino)-N-(piperdin-4-ylmethyl)pyrimidine-5-formamide]
IC50 (PDE-11): > 10000 nM

SMILES: COc1ccc(CNc2nc(N3CCC4(CCN(C)C4)C3)ncc2C(=O)NCc2ncccn2)cc1Cl (stereo not drawn) [Compound 18, 4-((3-chloro-4-methoxybenzyl)amino)-2-(7-methyl-2,7-diazaspiro[4.4]nonan-2-yl)-N-(pyrimidin-2-ylmethyl)pyrimidine-5-formamide]
IC50 (PDE-11): > 10000 nM

SMILES: COc1ccc(CNc2nc(N3CCC4(CC4)C3)ncc2C(=O)NCCN2CCOCC2)cc1Cl [Compound 39, 4-((3-chloro-4-methoxybenzyl)amino)-N-(2-morpholinoethyl)-2-(5-azaspiro[2.4]heptan-5-yl)pyrimidine-5-formamide]
IC50 (PDE-5A enzyme): 21.4 nM

SMILES: COc1ccc(CNc2nc(N3CCC4(CC4)C3)ncc2C(=O)NCc2ncccn2)cc1Cl [Compound 41, 4-((3-chloro-4-methoxybenzyl)amino)-N-(pyrimidin-2-ylmethyl)-2-(5-azaspiro[2.4]heptan-5-yl)pyrimidine-5-formamide]
AUC(0-inf) [1, 2]: 67 ng·h/mL
Cmax [1, 2]: 43.8 ng/mL
Tmax [1, 2]: 0.5 h
half-life [1, 2]: 0.91 h
bioavailability [1, 2]: 17.7%
AUC(0-inf) ([1]; intravenous injection, 1 mg/kg): 188 ng·h/mL
half-life ([1]; intravenous injection, 1 mg/kg): 0.83 h
Cl_obs ([1]; intravenous injection, 1 mg/kg): 89.2 mL/min/kg
Vss_obs ([1]; intravenous injection, 1 mg/kg): 6.62 L/kg
IC50 (PDE-5A enzyme): 22.9 nM

SMILES: COc1ccc(CNc2nc(N3CCC4(CC4)C3)ncc2C(=O)NCc2ccccc2)cc1Cl [Compound 21, N-benzyl-4-((3-chloro-4-methoxybenzyl)amino)-2-(5-azaspiro[2.4]heptan-5-yl)pyrimidine-5-formamide]
IC50 (PDE-5A enzyme): 17.3 nM

SMILES: COc1ccc(CNc2nc(N3CCC4(CCC4)CC3)ncc2C(=O)NCc2ncccn2)cc1Cl [Compound 14, 4-((3-chloro-4-methoxybenzyl)amino)-N-(pyrimidin-2-ylmethyl)-2-(7-azaspiro[3.5]nonan-7-yl)pyrimidine-5-formamide]
AUC(0-inf) [1, 3]: 36 ng·h/mL
Cmax [1, 3]: 5.2 ng/mL
half-life [1, 3]: 2.85 h
bioavailability [1, 3]: 15%
AUC(0-inf) ([1]; intravenous injection, 1 mg/kg): 237 ng·h/mL
half-life ([1]; intravenous injection, 1 mg/kg): 1.47 h
Cl_obs ([1]; intravenous injection, 1 mg/kg): 71 mL/min/kg
Vss_obs ([1]; intravenous injection, 1 mg/kg): 8.73 L/kg
IC50 (PDE-11): > 10000 nM

SMILES: COc1ccc(CNc2nc(N3CCC4(CC4)C3)ncc2C(=O)NCc2ccccn2)cc1Cl [Compound 40, 4-((3-chloro-4-methoxybenzyl)amino)-N-(pyridin-2-ylmethyl)-2-(5-azaspiro[2.4]heptan-5-yl)pyrimidine-5-formamide]
AUC(0-inf) [1, 2]: 57 ng·h/mL
Cmax [1, 2]: 13.9 ng/mL
Tmax [1, 2]: 0.5 h
half-life [1, 2]: 3.58 h
bioavailability [1, 2]: 9.5%
AUC(0-inf) ([1]; intravenous injection, 1 mg/kg): 205 ng·h/mL
half-life ([1]; intravenous injection, 1 mg/kg): 2.73 h
Cl_obs ([1]; intravenous injection, 1 mg/kg): 81.3 mL/min/kg
Vss_obs ([1]; intravenous injection, 1 mg/kg): 16.40 L/kg
IC50 (PDE-5A enzyme): 11.9 nM

SMILES: COc1ccc(CNc2nc(N3CCC4(CC3)CC4)ncc2C(=O)NCc2ncccn2)cc1Cl [Compound 15, 4-((3-chloro-4-methoxybenzyl)amino)-N-(pyrimidin-2-ylmethyl)-2-(6-azaspiro[2.5]octan-6-yl)pyrimidine-5-formamide]
IC50 (PDE-5A enzyme): 26.8 nM

Next, values leading:

IC50 (PDE-5A enzyme): 47 nM
SMILES: COc1ncc(CNc2nc(N3CC4CC4C3)ncc2C(=O)NCc2ncccn2)cc1Cl (stereo not drawn) [Compound 25, 2-(3-diazabicyclo[3.1.0]hexan-3-yl)-4-(((5-chloro-6-methoxypyridin-3-yl)methyl)amino)-N-(pyrimidin-2-ylmethyl)pyrimidine-5-formamide]

IC50 (PDE-5A enzyme): 34.9 nM
SMILES: COc1ccc(CNc2nc(N3CC4CC4C3CO)ncc2C(=O)NCCN2CCOCC2)cc1Cl (stereo not drawn) [Compound 34, 4-((3-chloro-4-methoxybenzyl)amino)-2-(2-(hydroxymethyl)-3-azabicyclo[3.1.0]hexan-3-yl)-N-(2-morpholinoethyl)pyrimidine-5-formamide]

IC50 (PDE-5A enzyme): 33.3 nM
SMILES: COc1ccc(CNc2nc(N3CC4CC4C3CO)ncc2C(=O)NCc2ccccn2)cc1Cl (stereo not drawn) [Compound 37, 4-((3-chloro-4-methoxybenzyl)amino)-2-(2-(hydroxymethyl)-3-azabicyclo[3.1.0]hexan-3-yl)-N-(pyridin-2-ylmethyl)pyrimidine-5-formamide]

IC50 (PDE-5A enzyme): 22.6 nM
SMILES: COc1ccc(CNc2nc(N3CCC4(CCC4)C3)ncc2C(=O)NCc2ccccc2)cc1Cl [Compound 28, N-benzyl-4-((3-chloro-4-methoxybenzyl)amino)-2-(6-azaspiro[3.4]octan-6-yl)pyrimidine-5-formamide]

AUC(0-inf) [1, 2]: 24 ng·h/mL
Cmax [1, 2]: 6.5 ng/mL
Tmax [1, 2]: 0.5 h
half-life [1, 2]: 2.26 h
bioavailability [1, 2]: 3.5%
AUC(0-inf) ([1]; intravenous injection, 1 mg/kg): 212 ng·h/mL
half-life ([1]; intravenous injection, 1 mg/kg): 1.68 h
Cl_obs ([1]; intravenous injection, 1 mg/kg): 80.2 mL/min/kg
Vss_obs ([1]; intravenous injection, 1 mg/kg): 12.05 L/kg
IC50 (PDE-5A enzyme): 4.63 nM
SMILES: COc1ccc(CNc2nc(N3CC4CC4C3CO)ncc2C(=O)NCc2ccccc2)cc1Cl (stereo not drawn) [Compound 32, N-benzyl-4-((3-chloro-4-methoxybenzyl)amino)-2-(2-(hydroxymethyl)-3-azabicyclo[3.1.0]hexan-3-yl)pyrimidine-5-formamide]

IC50 (PDE-11): > 10000 nM
SMILES: COc1ccc(CNc2nc(N3CCC4(CC4)C3)ncc2C(=O)NCC2CCC(O)CC2)cc1Cl (stereo not drawn) [Compound 47, 4-((3-chloro-4-methoxybenzyl)amino)-N-(4-hydroxycyclohexyl)methyl-2-(5-azaspiro[2.4]heptan-5-yl)pyrimidine-5-formamide]

IC50 (PDE-5A enzyme): 47.2 nM
SMILES: COc1ccc(CNc2nc(N3CC4CC4C3CO)ncc2C(=O)N[C@H]2CC[C@H](O)CC2)cc1Cl (stereo partly drawn) [Compound 35, 4-((3-chloro-4-methoxybenzyl)amino)-N-(trans-4-hydroxycyclohexyl)-2-(2-(hydroxymethyl)-3-azabicyclo[3.1.0]hexan-3-yl)pyrimidine-5-formamide]

IC50 (PDE-11): > 10000 nM
SMILES: COc1ccc(CNc2nc(N3CCC4(CC4)C3)ncc2C(=O)NCCN2CCNCC2)cc1Cl [Compound 42, 4-((3-chloro-4-methoxybenzyl)amino)-N-(2-(piperazin-1-yl)ethyl)-2-(5-azaspiro[2.4]heptan-5-yl)pyrimidine-5-formamide]

IC50 (PDE-5A enzyme): 10.4 nM
SMILES: COc1ccc(CNc2nc(N3CC4CC4C3CO)ncc2C(=O)NCc2ncccn2)cc1Cl (stereo not drawn) [Compound 27, 4-((3-chloro-4-methoxybenzyl)amino)-2-(2-(hydroxylmethyl)-3-azabicyclo[3.1.0]hexan-3-yl)-N-(pyrimidin-2-ylmethyl)pyrimidine-5-formamide]

IC50 (PDE-5A enzyme): 52.4 nM
SMILES: COc1ccc(CNc2nc(N3CCC4(CC3)CC4)ncc2C(=O)N[C@H]2CC[C@H](O)CC2)cc1Cl [Compound 36, 4-((3-chloro-4-methoxybenzyl)amino)-N-(trams-4-hydroxycyclohexyl)-2-(6-azaspiro[2.5]octan-6-yl)pyrimidine-5-formamide]

IC50 (PDE-11): > 10000 nM
SMILES: COc1ccc(CNc2nc(N3CCC4(CC4)C3)ncc2C(=O)N[C@H]2CC[C@H](N)CC2)cc1Cl [Compound 44, N-(trans-4-aminocyclohexyl)-4-(3-chloro-4-methoxybenzylamino)-2-(5-azaspiro[2.4]heptan-5-yl)pyrimidine-5-formamide]
